Key:
[1] = DRUGMATRIX: GABAA, Flunitrazepam, Central radioligand binding (ligand: [3H] Flunitrazepam); format: cell membranes, Rattus norvegicus, Wistar, Brain, Membrane; settings: Not Active = under 50% inhibition at 10 µM
[2] = biological target: T1, Vasoactive intestinal polypeptide receptor 1 (Homo sapiens, UniProt P32241); format: cell membranes, Membrane; settings: ht-29; further: in other assays of this panel Not Active means under 50% inhibition at 10 µM
T1 sequence (P32241 whole entry): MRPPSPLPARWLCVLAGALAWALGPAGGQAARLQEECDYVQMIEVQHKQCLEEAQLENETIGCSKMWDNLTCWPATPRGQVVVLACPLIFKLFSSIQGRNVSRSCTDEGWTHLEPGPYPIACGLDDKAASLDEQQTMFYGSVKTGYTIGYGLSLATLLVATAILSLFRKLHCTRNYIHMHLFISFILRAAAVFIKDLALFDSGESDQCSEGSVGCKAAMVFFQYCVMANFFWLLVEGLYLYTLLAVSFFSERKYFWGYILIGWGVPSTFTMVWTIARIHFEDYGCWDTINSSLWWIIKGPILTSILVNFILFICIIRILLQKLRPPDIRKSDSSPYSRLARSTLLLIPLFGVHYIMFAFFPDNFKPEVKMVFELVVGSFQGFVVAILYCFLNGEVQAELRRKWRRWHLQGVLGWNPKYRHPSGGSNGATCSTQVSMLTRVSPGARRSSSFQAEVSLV

[3] = biological target: T2, C-C chemokine receptor type 4 (Homo sapiens, UniProt P51679); format: cell membranes, Membrane; settings: chem-1; further: in other assays of this panel Not Active means under 50% inhibition at 10 µM
T2 sequence (P51679 whole entry): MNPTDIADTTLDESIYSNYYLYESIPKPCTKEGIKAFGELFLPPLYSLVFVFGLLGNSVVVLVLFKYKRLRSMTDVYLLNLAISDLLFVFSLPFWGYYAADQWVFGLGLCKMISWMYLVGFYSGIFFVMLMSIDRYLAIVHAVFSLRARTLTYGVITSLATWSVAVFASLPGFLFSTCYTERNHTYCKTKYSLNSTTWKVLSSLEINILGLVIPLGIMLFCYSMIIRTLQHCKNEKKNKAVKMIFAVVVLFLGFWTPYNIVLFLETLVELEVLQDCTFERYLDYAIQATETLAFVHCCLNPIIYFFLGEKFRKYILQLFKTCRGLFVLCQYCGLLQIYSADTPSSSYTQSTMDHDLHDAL

[4] = DRUGMATRIX: Nicotinic Acetylcholine radioligand binding (ligand: [125I] Epibatidine); format: cell membranes, Membrane; settings: imr-32; Not Active = under 50% inhibition at 10 µM
[5] = DRUGMATRIX: Phosphodiesterase PDE4 enzyme inhibition (substrate: [3H]cAMP + cAMP); settings: u-937; Not Active = under 50% inhibition at 10 µM
[6] = biological target: Kappa-type opioid receptor (Homo sapiens, UniProt P41145); experiment: DRUGMATRIX: Opiate kappa (OP2, KOP) radioligand binding (ligand: [3H] Diprenorphine); format: cell membranes, HEK293, Membrane; settings: hek293; Not Active = under 50% inhibition at 10 µM
[7] = DRUGMATRIX: Glutamate, Kainate radioligand binding (ligand: [3H] Kainic acid); format: cell membranes, Rattus norvegicus, Wistar, Brain, Membrane; settings: Not Active = under 50% inhibition at 10 µM
[8] = DRUGMATRIX: GABAA, Chloride Channel, TBOB radioligand binding (ligand: [3H] TBOB); format: cell membranes, Rattus norvegicus, Wistar, Cerebral cortex, Membrane; settings: Not Active = under 50% inhibition at 10 µM

Chain of Kappa-type opioid receptor (P41145 whole entry): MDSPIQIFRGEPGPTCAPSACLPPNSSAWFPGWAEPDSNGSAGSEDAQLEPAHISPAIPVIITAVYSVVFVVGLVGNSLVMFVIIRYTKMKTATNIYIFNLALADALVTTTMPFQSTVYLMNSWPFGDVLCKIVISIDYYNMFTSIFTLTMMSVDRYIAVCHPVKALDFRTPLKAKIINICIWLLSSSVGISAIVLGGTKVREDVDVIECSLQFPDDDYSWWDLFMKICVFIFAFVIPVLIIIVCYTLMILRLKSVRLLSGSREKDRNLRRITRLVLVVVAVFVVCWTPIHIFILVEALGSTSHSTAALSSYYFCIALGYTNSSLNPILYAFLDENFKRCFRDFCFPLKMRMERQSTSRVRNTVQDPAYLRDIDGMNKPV

Nc1nc2c(c(=O)[nH]1)N(C=O)C(CNc1ccc(C(=O)N[C@@H](CCC(=O)O)C(=O)O)cc1)CN2 (stereo partly specified) [LEUCOVORIN]
Not Active: IC50 [1] | Ki [1] | IC50 [2] | IC50 [3] | IC50 [4] | Ki [4] | IC50 [5] | Ki [5] | IC50 [6] | IC50 [7] | Ki [7] | IC50 [8] | Ki [8]

C[C@@H](O)[C@H]1C(=O)N2C(C(=O)O)=C(S[C@@H]3CN[C@H](C(=O)N(C)C)C3)[C@H](C)[C@H]12 [MEROPENEM]
Not Active: IC50 [1] | Ki [1] | IC50 [2] | IC50 [3] | IC50 [4] | Ki [4] | IC50 [5] | Ki [5] | IC50 [6] | IC50 [7] | Ki [7] | IC50 [8] | Ki [8]

CC[C@@H](CO)NC(=O)[C@@H]1C=C2c3cccc4c3c(cn4C)C[C@H]2N(C)C1 [METHYSERGIDE]
Not Active: IC50 [2] | IC50 [3] | IC50 [6]

CCN(CC)CC#CCOC(=O)C(O)(c1ccccc1)C1CCCCC1 (stereo unspecified) [OXYBUTYNIN]
Not Active: IC50 [2] | IC50 [3] | IC50 [6]

O=P(O)(O)C(O)(Cc1cccnc1)P(=O)(O)O [RISEDRONIC ACID]
Not Active: IC50 [1] | Ki [1] | IC50 [2] | IC50 [3] | IC50 [4] | Ki [4] | IC50 [5] | Ki [5] | IC50 [6] | IC50 [7] | Ki [7] | IC50 [8] | Ki [8]

CN(CCOc1ccc(CC2SC(=O)NC2=O)cc1)c1ccccn1 (stereo unspecified) [ROSIGLITAZONE]
Not Active: IC50 [1] | Ki [1] | IC50 [2] | IC50 [3] | IC50 [4] | Ki [4] | IC50 [5] | Ki [5] | IC50 [6] | IC50 [7] | Ki [7] | IC50 [8] | Ki [8]

C=C(C)[C@H]1Cc2c(ccc3c2O[C@@H]2COc4cc(OC)c(OC)cc4[C@@H]2C3=O)O1 [ROTENONE]
Not Active: IC50 [1] | Ki [1] | IC50 [2] | IC50 [3] | IC50 [4] | Ki [4] | IC50 [5] | Ki [5] | IC50 [7] | Ki [7] | IC50 [8] | Ki [8]

C#CCN(C)[C@H](C)Cc1ccccc1 [SELEGILINE]
Not Active: IC50 [1] | Ki [1] | IC50 [2] | IC50 [3] | IC50 [4] | Ki [4] | IC50 [5] | Ki [5] | IC50 [6] | IC50 [7] | Ki [7] | IC50 [8] | Ki [8]

O=c1n(CCCN2CCN(c3cccc(Cl)c3)CC2)nc2ccccn12 [TRAZODONE]
Not Active: IC50 [2] | IC50 [3] | IC50 [6]

O=C(O)C(Cl)(Cl)Cl [TRICHLOROACETIC ACID]
Not Active: IC50 [1] | Ki [1] | IC50 [2] | IC50 [3] | IC50 [4] | Ki [4] | IC50 [5] | Ki [5] | IC50 [7] | Ki [7] | IC50 [8] | Ki [8]

STANNOUS FLUORIDE
Not Active: IC50 [1] | Ki [1] | IC50 [2] | Ki [2] | IC50 [3] | Ki [3] | IC50 [4] | Ki [4] | IC50 [5] | Ki [5] | IC50 [7] | Ki [7] | IC50 [8] | Ki [8]

THIMEROSAL
Not Active: IC50 [1] | Ki [1] | IC50 [2] | Ki [2] | IC50 [3] | Ki [3] | IC50 [4] | Ki [4] | IC50 [5] | Ki [5] | IC50 [7] | Ki [7] | IC50 [8] | Ki [8]
